Experimental data taken from patent US9846160B2, “Ganglioside GD2 as a marker and target on cancer stem cells” (Board of Regents, The University of Texas System, priority 2012, dated 2017).
“Also recorded” adds a separate entry of the source.

Assays:
GD3S = details: melanoma cancer cell line; cited from earlier work
GD3S mRNA expression [1] = assay: GD3S mRNA expression by real-time RT-PCR in SUM159 cells; assay type: cell-based, Human; details: Sum159, 125 nM, 24 hr, dose dependent
Method: (§1) MDA-MB-231 cells (A) or SUM159 cells (B) (5×10^5/well) of 6 well cell culture dish was treated with 25 nM or 50 nM or 75 nM or 100 nM or 125 nM concentration of Triptolide for 24 hrs. Total RNA was extracted and GD3S expression was measured by real-time RT-PCR. (C) To measure GD2^+ cells growth inhibition, 5×10^5 MDA-MB-231 cells were plated in each well of 6 well cell culture dish and treated with 25 nM or 50 nM or 75 nM or 100 nM or 125 nM concentration of Triptolide for 48 hrs or 72 hrs. After incubation, the cells were detached with trypsin and stained with anti-GD2 antibody and Sytox-Red (for dead cells). The stained cells were analyzed on LSR-II flow cytometer. Absolute number of live cells were calculated by measuring 1000 events for True Count® beads as explained methods. […] (E) Tumors sizes from the mice in experiment in FIG. 6D were measured every week after tumor engraftment and the measurements were shown in a line graph. […] Control (n=4, black line) and Triptolide (n=4, blue line), were analyzed for cumulative survival. […]
(§2) For mRNA analysis 5×10^5 MDA-MB-231 or SUM159 breast cancer cell lines were incubated with triptolide (Alexis Biochemicals, San Diego, Calif.) at 25, 50, 75, 100 and 125 nM concentrations for 24 hrs at 37° C. in six-well cell culture dishes. […] The cells were analyzed in LSR-II flow cytometer (BD). […]

MDA-MB-231 cells [2] = assay: GD2+ cell growth inhibition / apoptosis by flow cytometry after triptolide; assay type: cell-based, Human
Method: as §1, §2

MDA-MB-231 cells [3] = assay: Tumor growth inhibition and survival, MDA-MB-231 xenografts; assay type: in vivo, NOD/SCID mice; details: for tumor growth compared to control mice: after 4 weeks; for reduction in tumor volume: in 25% of mice, 0.15 mg/kg/day
Method: MDA-MB-231 cells (A) or SUM159 cells (B) (5×10^5/well) of 6 well cell culture dish was treated with 25 nM or 50 nM or 75 nM or 100 nM or 125 nM concentration of Triptolide for 24 hrs. Total RNA was extracted and GD3S expression was measured by real-time RT-PCR. (C) To measure GD2^+ cells growth inhibition, 5×10^5 MDA-MB-231 cells were plated in each well of 6 well cell culture dish and treated with 25 nM or 50 nM or 75 nM or 100 nM or 125 nM concentration of Triptolide for 48 hrs or 72 hrs. After incubation, the cells were detached with trypsin and stained with anti-GD2 antibody and Sytox-Red (for dead cells). The stained cells were analyzed on LSR-II flow cytometer. Absolute number of live cells were calculated by measuring 1000 events for True Count® beads as explained methods. (D) To determine the inhibition of tumor growth, 1×10^6 MDA-MB-231 cells were subcutaneously transplanted into NOD/SCID mice (n=8, 4 mice/group). A group of the mice were treated with 0.15 mg/kg/day of triptolide and the control group was treated with PBS everyday by intra peritoneal injections. At the end of 8 weeks, mice were sacrificed, tumors were dissected out and photographed. (E) Tumors sizes from the mice in experiment in FIG. 6D were measured every week after tumor engraftment and the measurements were shown in a line graph. (F) The survival analysis was based on Kaplan-Myer estimation and groups were compared by the log-rank test. Control (n=4, black line) and Triptolide (n=4, blue line), were analyzed for cumulative survival. Survival was defined as the time (in weeks) from transplant until death. P value represents the statistical significance.
For mRNA analysis 5×10^5 MDA-MB-231 or SUM159 breast cancer cell lines were incubated with triptolide (Alexis Biochemicals, San Diego, Calif.) at 25, 50, 75, 100 and 125 nM concentrations for 24 hrs at 37° C. in six-well cell culture dishes. For the growth inhibition studies, 3×10^5 MDA-MB-231 cells cultured in a 6 well tissue culture dishes were treated with triptolide at specified concentrations for either 24 hrs or 48 hrs. After incubation the cells were detached using trypsin and stained with anti-GD2 antibody (by indirect staining protocol) and pacific-blue conjugated Annexin-V (Invitrogen, Carlsbad, Calif.) following the manufactures instructions. The cells were analyzed in LSR-II flow cytometer (BD). The absolute number of cells were counted by measuring True Count® counting beads (Invitrogen) as per manufacturer's instructions. To examine tumor growth inhibition, survival of murine tumor xenografts was determined by subcutaneous administration of 1×10^6 MDA-MB-231 cells into 8-10 week old NOD/SCID mice. After growing for 2 weeks tumor xenografts reached a size of ˜50 mm^3 Thereafter, Triptolide (0.15 mg/Kg/day) was administered IP into the mice on a daily basis. The mice were sacrificed when the control tumors reached 2 cm or higher following institutional guidelines.
After the tumors reached 50 mm^3, the mice were randomly divided into two groups, and half of the mice treated with triptolide (0.15 mg/kg/day) while the other half were treated with PBS (control mice) every day by intraperitoneal injections. […] Fifty percent of triptolide treated breast tumors were completely tumor free and there was reduction in tumor volume by >8-fold in 25% of mice (FIG. 6D). In addition, tumors in triptolide treated mice were 3-fold smaller in size and 4-fold lighter by weight (FIG. 6E, FIG. 16). […] These findings indicate that […] plays a major role in regulating […] expression and the resulting GD2^+ population. Specifically, it affects cell proliferation and tumor initiation of GD2^+ breast cancer cells and when inhibited, greatly diminishes tumor growth and increases metastasis free survival of breast cancer bearing mice.

GD3S mRNA expression [4] = assay: GD3S mRNA expression by real-time RT-PCR in MDA-MB-231 cells; assay type: cell-based, Human
Method: as §1, §2

[5] = 0.15 mg/kg/day intraperitoneal, listed as triptolide

For CC(C)[C@]12O[C@H]1[C@@H]1O[C@]13[C@]1(O[C@H]1C[C@H]1C4=C(CC[C@@]13C)C(=O)OC4)[C@@H]2O [Triptolide], the “inhibition of GD3S” value (GD3S) is given as “has been shown to inhibit GD3S”, the “inhibition of GD3S mRNA expression” value (GD3S mRNA expression [1]) is given as > 95% and the “decrease of GD2+ cells (absolute cell counts)” value (MDA-MB-231 cells [2]; MDA-MB-231, different concentrations, 24 or 48 hours) is given as “dose dependent and time dependent decrease of GD2^+ cells”. For the same molecule, the induction of apoptosis (MDA-MB-231 cells [2]; breast cancer cells / MDA-MB-231) was “induce apoptosis in MDA-MB-231 cells; also recorded: induced apoptosis in a time dependent manner”, the “treated breast tumors completely tumor free” value (MDA-MB-231 cells [3]; 0.15 mg/kg/day intraperitoneal) was “Fifty” and the “tumors lighter by weight vs control” value (MDA-MB-231 cells [3]; 0.15 mg/kg/day intraperitoneal) was 4 fold. The “tumors smaller in size vs control” value (MDA-MB-231 cells [3]; 0.15 mg/kg/day intraperitoneal) was 3 fold, the “tumor growth compared to control mice” value (MDA-MB-231 cells [3]; 0.15 mg/kg/day intraperitoneal) was “blocks tumor growth” and the “tumor growth compared to control mice” value (MDA-MB-231 cells [3]; [5]) was “dramatic decrease in tumor growth”. For the same molecule, the tumor mass (MDA-MB-231 cells [3]; FIG. 16, p<0.01) was “reduces tumor mass”, the “reduction in tumor volume” value (MDA-MB-231 cells [3]; 0.15 mg/kg/day intraperitoneal) was 7- to 8 fold and the “reduction in tumor volume” value (MDA-MB-231 cells [3]; [5]) was > 8 fold. For the same molecule, the “mice in which tumors were eliminated” value (MDA-MB-231 cells [3]; intra-peritoneal administration) was 50%, the “survival of treated mice” value (MDA-MB-231 cells [3]; repeat experiment, Log-rank control vs triptolide p=0.0015) was “significantly prolonged survival” and the “inhibition of GD3S mRNA expression” value (GD3S mRNA expression [4]; MDA-MB-231, 125 nM, 24 hr, dose dependent) was > 95%. For the same molecule, the “inhibition of GD3S expression” value (GD3S mRNA expression [4]; breast cancer cells, dose dependent manner (summary)) was > 95%.
